For data set [1], the target named is Aurora kinase B (Homo sapiens) (UniProt Q96GD4). Put plainly: Inhibition of recombinant full-length human Aurora-B at 1 uM using AKRRRLSSLRA as substrate after 40 mins in presence of [gamma-33P]ATP by scintillation counting method.
In data set [2] the target is Serine/threonine-protein kinase PAK 4 (Homo sapiens) (UniProt O96013). Put plainly: Inhibition of recombinant human PAK4 (295 to end residues) at 1 uM using myelin basic protein as substrate after 40 mins in presence of [gamma-33P]ATP by scintillation counting method.
Data set [3] has as its target Serine/threonine-protein kinase Nek9 (Homo sapiens) (UniProt Q8TD19). Put plainly: Inhibition of recombinant human NEK9 (1 to 324 residues) at 1 uM using myelin basic protein as substrate after 40 mins in presence of [gamma-33P]ATP by scintillation counting method.
Data set [4] concerns Epidermal growth factor receptor (Homo sapiens), P00533 [T790M]. Description: Inhibition of recombinant human EGFR T790M mutant (696 to end residues) at 1 uM using GGMEDIYFEFMGGKKK as substrate after 40 mins in presence of [gamma-33P]ATP by scintillation counting method.
In data set [5] the target is Phosphatidylinositol 3-kinase (Mus musculus) (UniProt P26450+P42337). Description: Inhibition of recombinant full-length mouse PI3K p110a/p85a at 1 uM using phosphatidylinositol 4,5-bisphosphate as substrate after 40 mins in presence of [gamma-33P]ATP by scintillation counting method. The data set is classed as protein assay.
Phosphatidylinositol 3-kinase (Mus musculus), sequence (P26450 whole entry, looked up): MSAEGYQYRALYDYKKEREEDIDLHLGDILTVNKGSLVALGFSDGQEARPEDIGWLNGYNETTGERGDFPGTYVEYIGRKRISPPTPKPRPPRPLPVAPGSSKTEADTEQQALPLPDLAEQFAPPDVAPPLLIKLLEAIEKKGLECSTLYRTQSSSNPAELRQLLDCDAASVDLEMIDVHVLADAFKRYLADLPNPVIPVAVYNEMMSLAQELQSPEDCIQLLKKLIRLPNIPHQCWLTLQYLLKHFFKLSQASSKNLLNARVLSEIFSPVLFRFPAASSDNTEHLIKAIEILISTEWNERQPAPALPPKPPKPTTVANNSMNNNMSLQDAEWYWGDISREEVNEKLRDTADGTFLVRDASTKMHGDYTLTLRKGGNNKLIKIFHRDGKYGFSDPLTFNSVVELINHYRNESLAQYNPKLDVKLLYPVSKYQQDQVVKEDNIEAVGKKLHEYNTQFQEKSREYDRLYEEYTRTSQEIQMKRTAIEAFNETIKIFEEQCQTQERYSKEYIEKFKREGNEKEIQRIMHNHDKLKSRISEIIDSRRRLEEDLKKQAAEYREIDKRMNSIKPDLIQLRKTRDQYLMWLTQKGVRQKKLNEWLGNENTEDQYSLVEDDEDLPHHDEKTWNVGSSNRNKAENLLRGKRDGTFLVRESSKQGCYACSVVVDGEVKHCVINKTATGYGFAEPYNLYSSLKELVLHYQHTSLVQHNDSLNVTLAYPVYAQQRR
Phosphatidylinositol 3-kinase (Mus musculus), sequence (P42337 whole entry, looked up): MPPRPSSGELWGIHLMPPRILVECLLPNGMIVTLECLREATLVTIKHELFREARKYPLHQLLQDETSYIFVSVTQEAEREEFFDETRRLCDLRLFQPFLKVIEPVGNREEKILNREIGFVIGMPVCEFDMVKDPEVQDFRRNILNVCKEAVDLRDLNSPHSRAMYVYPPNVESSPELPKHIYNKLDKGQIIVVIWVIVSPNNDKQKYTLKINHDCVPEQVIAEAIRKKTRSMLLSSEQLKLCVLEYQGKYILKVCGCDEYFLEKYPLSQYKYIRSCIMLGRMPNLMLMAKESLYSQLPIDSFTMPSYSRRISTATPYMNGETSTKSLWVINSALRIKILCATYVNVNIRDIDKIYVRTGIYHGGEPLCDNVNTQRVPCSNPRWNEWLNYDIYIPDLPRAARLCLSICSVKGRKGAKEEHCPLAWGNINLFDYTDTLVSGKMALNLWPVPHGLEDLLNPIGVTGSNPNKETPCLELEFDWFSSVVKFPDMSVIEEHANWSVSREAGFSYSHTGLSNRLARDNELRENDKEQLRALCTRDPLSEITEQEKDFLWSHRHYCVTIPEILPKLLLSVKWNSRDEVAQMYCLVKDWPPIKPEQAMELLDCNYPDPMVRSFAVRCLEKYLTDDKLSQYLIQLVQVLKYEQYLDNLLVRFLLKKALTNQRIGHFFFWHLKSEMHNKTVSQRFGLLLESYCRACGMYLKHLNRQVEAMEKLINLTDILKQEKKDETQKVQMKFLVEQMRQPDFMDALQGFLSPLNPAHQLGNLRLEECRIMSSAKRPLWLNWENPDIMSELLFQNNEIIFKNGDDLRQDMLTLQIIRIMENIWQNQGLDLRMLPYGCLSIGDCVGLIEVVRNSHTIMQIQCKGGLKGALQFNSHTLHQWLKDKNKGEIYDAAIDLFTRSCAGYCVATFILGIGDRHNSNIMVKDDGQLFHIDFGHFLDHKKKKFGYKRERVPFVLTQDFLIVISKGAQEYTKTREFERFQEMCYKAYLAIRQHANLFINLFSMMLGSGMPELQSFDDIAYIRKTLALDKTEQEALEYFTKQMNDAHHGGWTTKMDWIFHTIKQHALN
Data set [6] deals with Epidermal growth factor receptor (Homo sapiens), P00533 [L858R,T790M]. Put plainly: Inhibition of recombinant human EGFR T790M/L858R double mutant (696 to end residues) at 1 uM using GGMEDIYFEFMGGKKK as substrate after 40 mins in presence of [gamma-33P]ATP by scintillation counting method.
Data set [7] concerns the target Death-associated protein kinase 2 (Homo sapiens) (UniProt Q9UIK4). Description: Inhibition of recombinant full-length human DAPK2 at 1 uM using […] after 40 mins in presence of [gamma-33P]ATP by scintillation counting method.
Data set [8] deals with Tyrosine-protein kinase HCK (Homo sapiens) (UniProt P08631). Put plainly: Inhibition of recombinant human Hck (230 to 497 residues) at 1 uM using KVEKIGEGTYGVVYK (Cdc2 peptide) as substrate after 40 mins in presence of [gamma-33P]ATP by scintillation counting method.
Data set [9] can be described thus: Metabolic stability in mouse liver microsomes assessed as compound remaining at 1 uM in presence of NADPH as cofactor measured after 30 mins by LC-MS/MS method. The data set is classed as ADME, microsome. As to conditions: read-out: Stability.
For data set [10], the target named is Casein kinase I isoform delta (Homo sapiens) (UniProt P48730). Description: Inhibition of recombinant human CK1delta (1 to 294 residues) at 1 uM using KRRRALS(p)VASLPGL as substrate after 40 mins in presence of [gamma-33P]ATP by scintillation counting method.
In data set [11] the target is Serine/threonine-protein kinase VRK2 (Homo sapiens) (UniProt Q86Y07). Put plainly: Inhibition of recombinant human VRK2 (1 to 336 residues) at 1 uM using casein as substrate after 40 mins in presence of [gamma-33P]ATP by scintillation counting method.
Data set [12] deals with Dual specificity protein kinase CLK2 (Homo sapiens) (UniProt P49760). Put plainly: Inhibition of recombinant human CLK2 (138 to end residues) at 1 uM using YRRAAVPPSPSLSRHSSPHQS(p)EDEEE as substrate after 40 mins in presence of [gamma-33P]ATP by scintillation counting method.
Dual specificity protein kinase CLK2 (Homo sapiens), sequence (P49760 whole entry, looked up): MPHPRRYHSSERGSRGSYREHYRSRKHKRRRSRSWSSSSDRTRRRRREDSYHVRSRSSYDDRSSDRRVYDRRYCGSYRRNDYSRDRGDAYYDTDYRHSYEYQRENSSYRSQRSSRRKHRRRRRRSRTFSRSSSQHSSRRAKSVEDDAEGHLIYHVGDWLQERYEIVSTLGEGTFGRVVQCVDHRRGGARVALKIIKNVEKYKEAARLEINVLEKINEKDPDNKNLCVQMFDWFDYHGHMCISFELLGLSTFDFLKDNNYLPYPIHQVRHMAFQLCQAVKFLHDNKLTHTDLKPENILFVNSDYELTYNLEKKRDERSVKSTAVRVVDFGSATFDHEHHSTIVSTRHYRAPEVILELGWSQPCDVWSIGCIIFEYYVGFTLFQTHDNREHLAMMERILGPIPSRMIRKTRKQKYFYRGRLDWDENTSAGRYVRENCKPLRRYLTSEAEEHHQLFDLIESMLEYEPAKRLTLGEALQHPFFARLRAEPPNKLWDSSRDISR
In data set [13] the target is Ephrin type-B receptor 1 (Homo sapiens) (UniProt P54762). Put plainly: Inhibition of recombinant human EPHB1 (564 to end residues) at 1 uM using KVEKIGEGTYGVVYK as substrate after 40 mins in presence of [gamma-33P]ATP by scintillation counting method.
The target in data set [14] is Protein-tyrosine kinase 6 (Homo sapiens) (UniProt Q13882). Description: Inhibition of recombinant full-length human BRK at 10 uM using poly(Glu,Tyr) 4:1 as substrate after 40 mins in presence of [gamma-33P]ATP by scintillation counting method.
Protein-tyrosine kinase 6 (Homo sapiens), sequence (Q13882 whole entry, looked up): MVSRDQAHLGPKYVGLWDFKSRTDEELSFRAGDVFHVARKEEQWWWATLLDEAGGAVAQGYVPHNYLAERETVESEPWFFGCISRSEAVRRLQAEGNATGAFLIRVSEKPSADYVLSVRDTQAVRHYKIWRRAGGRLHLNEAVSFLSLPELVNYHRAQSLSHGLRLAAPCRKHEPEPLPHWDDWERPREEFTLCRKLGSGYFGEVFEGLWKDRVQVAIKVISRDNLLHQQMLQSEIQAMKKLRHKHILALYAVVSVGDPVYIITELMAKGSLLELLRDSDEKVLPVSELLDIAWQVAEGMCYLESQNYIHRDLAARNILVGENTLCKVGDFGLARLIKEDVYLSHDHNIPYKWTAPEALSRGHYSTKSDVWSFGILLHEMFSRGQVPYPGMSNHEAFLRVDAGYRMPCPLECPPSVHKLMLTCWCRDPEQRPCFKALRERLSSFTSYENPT
Data set [15] deals with Tyrosine-protein kinase Lck (Homo sapiens) (UniProt P06239). Description: Inhibition of recombinant full-length human activated Lck at 1 uM using KVEKIGEGTYGVVYK as substrate after 40 mins in presence of [gamma-33P]ATP by scintillation counting method.
Data set [16] has as its target Casein kinase II subunit alpha (Homo sapiens) (UniProt P68400). Description: Inhibition of recombinant full-length human CK2 at 1 uM using RRRDDDSDDD as substrate after 40 mins in presence of [gamma-33P]ATP by scintillation counting method.
Data set [17] has as its target Fibroblast growth factor receptor 4 (Homo sapiens) (UniProt P22455). Description: Inhibition of recombinant human FGFR4 (442 to 755 residues) at 1 uM using poly(Glu,Tyr) 4:1 as substrate after 40 mins in presence of [gamma-33P]ATP by scintillation counting method.
For data set [18], the target named is Mitogen-activated protein kinase kinase kinase 7 (Homo sapiens) (UniProt O43318). Description: Inhibition of recombinant human TAK1 (1 to 303 residues) at 1 uM using casein as substrate after 40 mins in presence of [gamma-33P]ATP by scintillation counting method.
Mitogen-activated protein kinase kinase kinase 7 (Homo sapiens), sequence (O43318 whole entry, the tested form may be a part): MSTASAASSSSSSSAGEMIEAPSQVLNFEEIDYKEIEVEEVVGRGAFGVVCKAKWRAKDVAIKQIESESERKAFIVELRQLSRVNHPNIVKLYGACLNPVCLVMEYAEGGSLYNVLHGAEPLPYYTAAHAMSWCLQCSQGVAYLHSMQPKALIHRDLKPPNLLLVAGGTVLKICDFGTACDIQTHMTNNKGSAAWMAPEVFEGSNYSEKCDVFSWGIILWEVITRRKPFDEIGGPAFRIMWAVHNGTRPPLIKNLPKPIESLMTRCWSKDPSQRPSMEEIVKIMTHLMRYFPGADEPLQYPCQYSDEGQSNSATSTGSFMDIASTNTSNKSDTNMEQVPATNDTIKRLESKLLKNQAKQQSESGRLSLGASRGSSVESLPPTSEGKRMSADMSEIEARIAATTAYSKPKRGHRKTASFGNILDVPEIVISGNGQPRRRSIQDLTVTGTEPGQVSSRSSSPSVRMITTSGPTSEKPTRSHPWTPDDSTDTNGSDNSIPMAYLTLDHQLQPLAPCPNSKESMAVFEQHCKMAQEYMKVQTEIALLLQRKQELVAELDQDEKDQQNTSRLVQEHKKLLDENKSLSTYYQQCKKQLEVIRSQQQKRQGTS
Data set [19] deals with Macrophage-stimulating protein receptor (Homo sapiens) (UniProt Q04912). Put plainly: Inhibition of recombinant human Ron (983 to end residues) at 1 uM using GGMEDIYFEFMGGKKK as substrate after 40 mins in presence of [gamma-33P]ATP by scintillation counting method.
The target in data set [20] is Phosphatidylinositol 4-phosphate 3-kinase C2 domain-containing subunit alpha (Homo sapiens) (UniProt O00443). Put plainly: Inhibition of recombinant human PI3KC2alpha (299 to end residues) at 1 uM phosphatidylinositol/phosphatidylserine as substrate after 40 mins in presence of [gamma-33P]ATP by scintillation counting method.
For data set [21], the target named is PI3-kinase p110-delta/p85-alpha (Homo sapiens) (UniProt P27986+O00329). Put plainly: Inhibition of recombinant full-length human p110d/p85a at 1 uM using phosphatidylinositol 4,5-bisphosphate as substrate after 40 mins in presence of [gamma-33P]ATP by scintillation counting method. The data set is classed as protein-complex assay.
Data set [22] deals with Serine/threonine-protein kinase 24 (Homo sapiens) (UniProt Q9Y6E0). Put plainly: Inhibition of recombinant human MST3 (1 to 304 residues) at 1 uM using ERMRPRKRQGSVRRRV as substrate after 40 mins in presence of [gamma-33P]ATP by scintillation counting method.
Serine/threonine-protein kinase 24 (Homo sapiens), sequence (Q9Y6E0 whole entry, looked up, the tested form may be a part): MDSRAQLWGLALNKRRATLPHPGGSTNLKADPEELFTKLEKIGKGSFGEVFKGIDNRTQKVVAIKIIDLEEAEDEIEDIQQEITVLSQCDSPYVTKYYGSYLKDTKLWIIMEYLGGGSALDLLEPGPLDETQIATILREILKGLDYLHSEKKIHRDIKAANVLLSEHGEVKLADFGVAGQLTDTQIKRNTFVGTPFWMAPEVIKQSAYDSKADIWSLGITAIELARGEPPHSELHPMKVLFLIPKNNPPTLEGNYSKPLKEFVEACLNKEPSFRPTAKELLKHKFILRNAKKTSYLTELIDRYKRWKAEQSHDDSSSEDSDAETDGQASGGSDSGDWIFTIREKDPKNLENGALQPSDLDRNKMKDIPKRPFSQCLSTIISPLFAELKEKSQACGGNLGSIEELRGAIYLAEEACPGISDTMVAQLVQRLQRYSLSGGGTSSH
The target in data set [23] is Inhibitor of nuclear factor kappa-B kinase subunit epsilon (Homo sapiens) (UniProt Q14164). Put plainly: Inhibition of recombinant full-length human IKKepsilon at 1 uM using casein as substrate after 40 mins in presence of [gamma-33P]ATP by scintillation counting method.
Data set [24] has as its system Hepatocyte growth factor receptor (Homo sapiens), P08581 [M1268T]. Description: Inhibition of recombinant human Met M1268T mutant (974 to end residues) at 1 uM using KKKGQEEEYVFIE as substrate after 40 mins in presence of [gamma-33P]ATP by scintillation counting method.

Serine/threonine-protein kinase Nek9 (Homo sapiens), sequence (Q8TD19 whole entry, the tested form may be a part): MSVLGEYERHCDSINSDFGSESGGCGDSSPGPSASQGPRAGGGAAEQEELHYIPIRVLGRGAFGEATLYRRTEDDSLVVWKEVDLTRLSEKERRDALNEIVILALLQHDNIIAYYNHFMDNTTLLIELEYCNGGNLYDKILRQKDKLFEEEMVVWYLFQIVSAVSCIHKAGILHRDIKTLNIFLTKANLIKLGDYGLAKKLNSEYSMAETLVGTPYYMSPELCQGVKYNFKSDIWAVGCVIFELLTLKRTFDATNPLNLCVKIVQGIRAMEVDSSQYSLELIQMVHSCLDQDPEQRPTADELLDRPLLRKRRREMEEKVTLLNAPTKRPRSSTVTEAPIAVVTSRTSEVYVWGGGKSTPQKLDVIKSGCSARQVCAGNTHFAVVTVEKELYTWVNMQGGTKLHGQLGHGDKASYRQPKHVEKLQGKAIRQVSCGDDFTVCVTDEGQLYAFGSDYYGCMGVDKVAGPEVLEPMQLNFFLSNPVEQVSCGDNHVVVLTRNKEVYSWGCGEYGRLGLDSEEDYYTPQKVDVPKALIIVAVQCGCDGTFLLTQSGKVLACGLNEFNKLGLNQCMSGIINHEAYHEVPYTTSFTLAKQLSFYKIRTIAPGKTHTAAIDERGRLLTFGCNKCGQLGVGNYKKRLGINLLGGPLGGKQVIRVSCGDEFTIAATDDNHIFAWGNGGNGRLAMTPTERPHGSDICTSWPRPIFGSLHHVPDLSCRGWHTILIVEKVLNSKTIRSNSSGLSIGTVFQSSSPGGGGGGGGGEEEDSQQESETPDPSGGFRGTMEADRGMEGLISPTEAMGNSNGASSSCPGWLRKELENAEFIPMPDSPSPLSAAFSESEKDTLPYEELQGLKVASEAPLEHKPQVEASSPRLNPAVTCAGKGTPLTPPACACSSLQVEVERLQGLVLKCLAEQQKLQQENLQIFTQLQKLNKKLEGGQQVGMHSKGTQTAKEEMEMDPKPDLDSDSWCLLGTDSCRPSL

The inhibition is the drop in the measured response relative to a control, in per cent. Turning to `CS(=O)(=O)c1ccc(-n2nc(-c3cnc4[nH]ccc4c3)c3c(N)ncnc32)cc1`, the inhibition was found to be 7% in data set [1]; 45% in [2]; 11% in [3]; 22% in [4]; 10% in [5]; 27% in data set [6]. For the same molecule, the inhibition in data set [7] was found to be 4%; in data set [8] it was 50%; in data set [10], 66%; in [11] it was 0%; in data set [12] it was 13%; in data set [13] it was 22%. The inhibition is 102% in data set [14]; 38% in data set [15]; 2% in [16]; 3% in data set [17]; -3% in data set [18]; 2% in data set [19]. Further, the inhibition in [20] was 23%; in data set [21], 42%; in data set [22] it was 13%; in data set [23] it was 3%; in data set [24], -2%. For the same molecule, the remaining at 0.5 h, 1 µM in data set [9] was determined as 79%.

(Values after ChEMBL document CHEMBL4190187, “Discovery of pyrazolopyrimidine derivatives as novel inhibitors of ataxia telangiectasia and rad3 related protein (ATR)” (Bioorg Med Chem Lett, 2017).)
